Reference: ChEMBL document CHEMBL3885881, “DrugMatrix”

Organism: Rattus norvegicus
Assay: DrugMatrix - Regimen: Daily Repeat
Format: toxicity, organism-based, Sprague-Dawley
Set-up: regimen Daily Repeat, gender Male, age 6-8 weeks
Details: in vivo, po, route oral GAVAGE, vehicle 100 % WATER; for ABSOLUTE BASOPHIL / ABSOLUTE EOSINOPHIL / ABSOLUTE LYMPHOCYTE / ABSOLUTE MONOCYTE / ABSOLUTE SEGMENTED NEUTROPHIL / BASOPHIL / EOSINOPHIL / ERYTHROCYTE COUNT / HEMATOCRIT / HEMOGLOBIN / LEUKOCYTE COUNT / LYMPHOCYTE / MEAN CORPUSCULAR HEMOGLOBIN / MEAN CORPUSCULAR HEMOGLOBIN CONCENTRATION / MEAN CORPUSCULAR VOLUME / MONOCYTE / NEUTROPHIL / NUCLEATED RED BLOOD CELLS / PLATELET COUNT: tissue Blood; for ALANINE AMINOTRANSFERASE / ALBUMIN / ALKALINE PHOSPHATASE / ASPARTATE AMINOTRANSFERASE / BLOOD UREA NITROGEN / CARBON DIOXIDE / CHLORIDE / CHOLESTEROL / CREATINE PHOSPHOKINASE / CREATININE / GLUCOSE / LACTATE DEHYDROGENASE / LIPASE / PHOSPHORUS / POTASSIUM / SODIUM / TOTAL BILIRUBIN / TOTAL PROTEIN / URIC ACID: tissue Plasma
[1] = 17 mg/kg, 72 h, dose level High, time 3 day
[2] = 17 mg/kg, 120 h, dose level High, time 5 day
[3] = […], 72 h, dose 1.7 mg/Kg, dose level Low, time 3 day
[4] = […], 120 h, dose 1.7 mg/Kg, dose level Low, time 5 day

COP(=O)(OC)OC=C(Cl)Cl [DICHLORVOS]
ABSOLUTE BASOPHIL [1]: 0 CELLS/uL | ABSOLUTE EOSINOPHIL [1]: 43.33 CELLS/uL | ABSOLUTE LYMPHOCYTE [1]: 12252 CELLS/uL | ABSOLUTE MONOCYTE [1]: 527.33 CELLS/uL | ABSOLUTE SEGMENTED NEUTROPHIL [1]: 1577.33 CELLS/uL | BASOPHIL [1]: 0% | EOSINOPHIL [1]: 0.33% | ERYTHROCYTE COUNT [1]: 5.59 x10E6/uL | HEMATOCRIT [1]: 34.9% | HEMOGLOBIN [1]: 13.5 G/DL | LEUKOCYTE COUNT [1]: 14.4 x10E3/uL | LYMPHOCYTE [1]: 85% | MEAN CORPUSCULAR HEMOGLOBIN [1]: 24.17 pg | MEAN CORPUSCULAR HEMOGLOBIN CONCENTRATION [1]: 38.7 G/DL | MEAN CORPUSCULAR VOLUME [1]: 62.53 fL | MONOCYTE [1]: 3.67% | NEUTROPHIL [1]: 11% | NUCLEATED RED BLOOD CELLS [1]: 0 /100WBC | PLATELET COUNT [1]: 1225.67 x10E3/uL | ALANINE AMINOTRANSFERASE [1]: 49.67 u/L | ALBUMIN [1]: 4 G/DL | ALKALINE PHOSPHATASE [1]: 370.33 u/L | ASPARTATE AMINOTRANSFERASE [1]: 92 u/L | BLOOD UREA NITROGEN [1]: 17.67 mg/dL | CARBON DIOXIDE [1]: 27 mmol/L | CHLORIDE [1]: 104.33 MEQ/L | CHOLESTEROL [1]: 63.67 mg/dL | CREATINE PHOSPHOKINASE [1]: 448 u/L | CREATININE [1]: 0.2 mg/dL | GLUCOSE [1]: 141 mg/dL | LACTATE DEHYDROGENASE [1]: 444.33 u/L | LIPASE [1]: 8.33 u/L | PHOSPHORUS [1]: 12.67 mg/dL | POTASSIUM [1]: 6.46 MEQ/L | SODIUM [1]: 145.9 MEQ/L | TOTAL BILIRUBIN [1]: 0.2 mg/dL | TOTAL PROTEIN [1]: 5.77 G/DL | URIC ACID [1]: 1.23 mg/dL | ABSOLUTE BASOPHIL [2]: 0 CELLS/uL | ABSOLUTE EOSINOPHIL [2]: 213.33 CELLS/uL | ABSOLUTE LYMPHOCYTE [2]: 13980 CELLS/uL | ABSOLUTE MONOCYTE [2]: 329.33 CELLS/uL | ABSOLUTE SEGMENTED NEUTROPHIL [2]: 1944 CELLS/uL | BASOPHIL [2]: 0% | EOSINOPHIL [2]: 1.33% | ERYTHROCYTE COUNT [2]: 5.69 x10E6/uL | HEMATOCRIT [2]: 34.17% | HEMOGLOBIN [2]: 13.03 G/DL | LEUKOCYTE COUNT [2]: 16.47 x10E3/uL | LYMPHOCYTE [2]: 85% | MEAN CORPUSCULAR HEMOGLOBIN [2]: 22.9 pg | MEAN CORPUSCULAR HEMOGLOBIN CONCENTRATION [2]: 38.13 G/DL | MEAN CORPUSCULAR VOLUME [2]: 60.07 fL | MONOCYTE [2]: 2% | NEUTROPHIL [2]: 11.67% | NUCLEATED RED BLOOD CELLS [2]: 0 /100WBC | PLATELET COUNT [2]: 1272.67 x10E3/uL | ALANINE AMINOTRANSFERASE [2]: 46 u/L | ALBUMIN [2]: 4.23 G/DL | ALKALINE PHOSPHATASE [2]: 289.33 u/L | ASPARTATE AMINOTRANSFERASE [2]: 91 u/L | BLOOD UREA NITROGEN [2]: 19.33 mg/dL | CARBON DIOXIDE [2]: 24.67 mmol/L | CHLORIDE [2]: 105.33 MEQ/L | CHOLESTEROL [2]: 60.33 mg/dL | CREATINE PHOSPHOKINASE [2]: 609.33 u/L | CREATININE [2]: 0.22 mg/dL | GLUCOSE [2]: 167.33 mg/dL | LACTATE DEHYDROGENASE [2]: 458 u/L | LIPASE [2]: 8.33 u/L | PHOSPHORUS [2]: 12.8 mg/dL | POTASSIUM [2]: 5.47 MEQ/L | SODIUM [2]: 146.93 MEQ/L | TOTAL BILIRUBIN [2]: 0.13 mg/dL | TOTAL PROTEIN [2]: 5.8 G/DL | URIC ACID [2]: 1.37 mg/dL | ABSOLUTE BASOPHIL [3]: 0 CELLS/uL | ABSOLUTE EOSINOPHIL [3]: 0 CELLS/uL | ABSOLUTE LYMPHOCYTE [3]: 12487 CELLS/uL | ABSOLUTE MONOCYTE [3]: 388 CELLS/uL | ABSOLUTE SEGMENTED NEUTROPHIL [3]: 1291.67 CELLS/uL | BASOPHIL [3]: 0% | EOSINOPHIL [3]: 0% | ERYTHROCYTE COUNT [3]: 6.29 x10E6/uL | HEMATOCRIT [3]: 38.27% | HEMOGLOBIN [3]: 14.27 G/DL | LEUKOCYTE COUNT [3]: 14.17 x10E3/uL | LYMPHOCYTE [3]: 88.33% | MEAN CORPUSCULAR HEMOGLOBIN [3]: 22.67 pg | MEAN CORPUSCULAR HEMOGLOBIN CONCENTRATION [3]: 37.3 G/DL | MEAN CORPUSCULAR VOLUME [3]: 60.77 fL | MONOCYTE [3]: 2.67% | NEUTROPHIL [3]: 9% | NUCLEATED RED BLOOD CELLS [3]: 0 /100WBC | PLATELET COUNT [3]: 1299 x10E3/uL | ALANINE AMINOTRANSFERASE [3]: 50 u/L | ALBUMIN [3]: 4.4 G/DL | ALKALINE PHOSPHATASE [3]: 363 u/L | ASPARTATE AMINOTRANSFERASE [3]: 81.33 u/L | BLOOD UREA NITROGEN [3]: 14.67 mg/dL | CARBON DIOXIDE [3]: 23 mmol/L | CHLORIDE [3]: 104 MEQ/L | CHOLESTEROL [3]: 85.67 mg/dL | CREATINE PHOSPHOKINASE [3]: 178 u/L | CREATININE [3]: 0.19 mg/dL | GLUCOSE [3]: 178.67 mg/dL | LACTATE DEHYDROGENASE [3]: 95.67 u/L | LIPASE [3]: 9.33 u/L | PHOSPHORUS [3]: 13.57 mg/dL | POTASSIUM [3]: 6.76 MEQ/L | SODIUM [3]: 146.43 MEQ/L | TOTAL BILIRUBIN [3]: 0.23 mg/dL | TOTAL PROTEIN [3]: 6.37 G/DL | URIC ACID [3]: 3.2 mg/dL | ABSOLUTE BASOPHIL [4]: 0 CELLS/uL | ABSOLUTE EOSINOPHIL [4]: 131 CELLS/uL | ABSOLUTE LYMPHOCYTE [4]: 11771.67 CELLS/uL | ABSOLUTE MONOCYTE [4]: 175 CELLS/uL | ABSOLUTE SEGMENTED NEUTROPHIL [4]: 1055.67 CELLS/uL | BASOPHIL [4]: 0% | EOSINOPHIL [4]: 1% | ERYTHROCYTE COUNT [4]: 5.65 x10E6/uL | HEMATOCRIT [4]: 34.67% | HEMOGLOBIN [4]: 13 G/DL | LEUKOCYTE COUNT [4]: 13.13 x10E3/uL | LYMPHOCYTE [4]: 89.67% | MEAN CORPUSCULAR HEMOGLOBIN [4]: 22.97 pg | MEAN CORPUSCULAR HEMOGLOBIN CONCENTRATION [4]: 37.5 G/DL | MEAN CORPUSCULAR VOLUME [4]: 61.37 fL | MONOCYTE [4]: 1.33% | NEUTROPHIL [4]: 8% | NUCLEATED RED BLOOD CELLS [4]: 0 /100WBC | PLATELET COUNT [4]: 1220 x10E3/uL | ALANINE AMINOTRANSFERASE [4]: 47.67 u/L | ALBUMIN [4]: 4.2 G/DL | ALKALINE PHOSPHATASE [4]: 278 u/L | ASPARTATE AMINOTRANSFERASE [4]: 83.67 u/L | BLOOD UREA NITROGEN [4]: 18.33 mg/dL | CARBON DIOXIDE [4]: 25.67 mmol/L | CHLORIDE [4]: 106.67 MEQ/L | CHOLESTEROL [4]: 68.33 mg/dL | CREATINE PHOSPHOKINASE [4]: 322.33 u/L | CREATININE [4]: 0.19 mg/dL | GLUCOSE [4]: 144.33 mg/dL | LACTATE DEHYDROGENASE [4]: 436.33 u/L | LIPASE [4]: 8.67 u/L | PHOSPHORUS [4]: 11.6 mg/dL | POTASSIUM [4]: 6.06 MEQ/L | SODIUM [4]: 146.23 MEQ/L | TOTAL BILIRUBIN [4]: 0.2 mg/dL | TOTAL PROTEIN [4]: 5.9 G/DL | URIC ACID [4]: 1.03 mg/dL
